Test results taken from PMC3139667, “A Screen against Leishmania Intracellular Amastigotes: Comparison to a Promastigote Screen and Identification of a Host Cell-Specific Hit” (PLoS Neglected Tropical Diseases, 2011).
“Also recorded” adds a separate entry of the source. Where a name gives a salt, the structure may show the parent alone. Read-outs that look alike come from different tables or passages of the source.

How the values were obtained:
[1] = tested on: THP-1; assay: Host cell toxicity: THP-1 host nuclei counts in the image-based assay; details: for GI50: read-out: GI50 THP-1; for Selectivity: ratio between parasite GI50 and THP-1 GI50
Method: (§1) Sterile, black, 96-well, clear bottom plates (Greiner Bio-One) were seeded with exponentially growing THP-1 (5×10^5cells/ml). THP-1 were treated with 0.1 µM phorbol myristate acetate (PMA, Sigma) at 37°C for 48 h to achieve differentiation into adherent, non-dividing macrophages. Maturation of THP-1 cells towards monocyte-macrophage like cells is essential to avoid parasitized cells being overgrown by replicating cells. After activation by PMA, cells were washed and incubated with complete RPMI medium containing stationary phase L. donovani promastigotes at a macrophage/promastigote ratio of 1/15. After 4 h incubation at 37°C, non-internalized promastigotes were removed by 2–3 successive washes with RPMI containing 5% FBS and 5% horse serum. Test compounds (10 µM), positive control (2 µM amphotericin B) or negative control (1% DMSO) were then added to the cultures using a Biomek FXp liquid handler (Beckman Coulter). Cultures were incubated at 37°C for 72 h. Cells were then washed with phosphate-buffered saline (PBS), fixed for 30 minutes with 4% formaldehyde, rinsed again with PBS, stained for 2 h with 4′,6′-diamidino-2-phenylindole (DAPI 300 nM) and finally washed with PBS. […] Images were acquired with an INCell Analyzer 1000 automated epi-fluorescent microscope (G.E. Healthcare). The excitation and emission filters used to detect DAPI were 350/50 nm and 460/40 nm respectively. Eight image fields were acquired per well with a 20X objective. The proprietary INCell Developer Toolbox 1.7 software was used for image analysis. Segmentation parameters were set to identify host nuclei with a minimum area of 250 µm^2 and parasite kinetoplast with an average area of 1 µm^2. The intensity of parasite nucleus was too low to be detected with a 20X objective. A border, representing the boundary of the cell, was drawn around the nucleus (total area between 700 and 2000 µm^2). Only parasites found within this area were included in the calculation to eliminate extracellular parasites. False positive parasite detection in the nucleus was also excluded from the calculation. Host cell nuclei and parasite kinetoplasts were counted and the ratio of parasites DNA to host nuclei was selected as the measurement output. Percentage inhibition of parasite growth was calculated as [1-(P/hcx-P/hc^+)/(P/hc^−-P/hc^+)]*100 where P/hcx, P/hc^+ and P/hc^− are parasite per host cell ratio for every well, positive control (amphotericin B) and negative control (DMSO) respectively. Calculation of Z' factor and GI50 curve fitting were carried out as described above.

[2] = tested on: L. donovani promastigotes; assay: Promastigote high-throughput ATP-bioluminescence assay; assay type: cell-based, Leishmania donovani; details: for GI50: 72 h at 27°C, CellTiter-Glo, read-out: GI50 Promastigote
Method: L. donovani promastigotes from an exponentially growing culture were diluted to 10^6/ml in RPMI containing 10% FBS and 10% BHT. The diluted culture (99 µl/well) was dispensed in sterile 96-well flat white opaque assay plates (Greiner Bio-One) using a WellMate multichannel dispenser (Matrix). 1 µl of 1 mM test compound dissolved in DMSO was added to the plates for a final concentration of 10 µM compound and 1% DMSO. Amphotericin B was added as a positive control (final concentration 2 µM, 1% DMSO) and as a negative control, 1 µl DMSO was added (1% final concentration). Compounds and controls were added to the assay plate with the robotic dispenser Biomek FXp liquid handler (Beckman Coulter). Promastigotes were incubated with the compounds for 72 h at 27°C. The parasites were then lysed by adding 50 µl of CellTiter-Glo (Promega) and placed on an orbital shaker for 5 min at room temperature. After lysis, the resulting ATP-bioluminescence was measured using the Analyst HT plate reader (Molecular Devices). Percentage inhibition of parasite growth was calculated for each well as [1-(RLUx-RLU^+)/(RLU^--RLU^+)]*100 where RLUx, RLU^+ and RLU^- are respectively the Relative Light Units for each well, positive (amphotericin B) and negative (DMSO) controls. A screening window coefficient, denoted Z' factor, was used to evaluate the performance of the assay. The Z' factor, calculated as 1-(3σc++3σc−)/(µc+−µc−) where σc+, σc−, µc+ and µc− are respectively the standard deviation and mean values of positive and negative controls, is reflective of the assay signal dynamic range and the data variation associated with signal measurement. […] GI50 curve fitting was carried out using GraphPad Prism 4 Software (GraphPad Software Inc., San Diego, CA).

[3] = tested on: L. donovani intracellular amastigotes; assay: Intracellular amastigote high-throughput image-based assay in infected THP-1 macrophages; assay type: cell-based, Leishmania donovani; details: for GI50: L. donovani in THP-1, 72 h, parasites per host cell, read-out: GI50 Intracellular amastigote; for Primary screen against intracellular amastigotes, hit selection: 10 µM, duplicates, hit = 60% parasite growth inhibition and not more than 20% reduction in THP-1 numbers
Method: as §1

[4] = tested on: L. donovani axenic amastigotes; assay: Dose response study against axenic amastigotes (CellTiter-Glo); assay type: cell-based, Leishmania donovani; details: for GI50: 72 h at 37°C, CellTiter-Glo, read-out: GI50 Axenic amastigote
Method: L. donovani axenic amastigotes (5×10^5 cells/ml in axenic amastigote media) were dispensed in sterile 96-well flat white opaque assay plates (Greiner Bio-One) using a WellMate multichannel dispenser (Matrix). […] 1% DMSO and amphotericin B (2 µM, 1% DMSO final concentration) were added as negative and positive controls respectively. Axenic amastigotes were incubated with the compounds for 72 h at 37°C with 5% CO2. Parasite viability was then measured using CellTiter-Glo as described above.

[5] = Leishmania donovani, THP-1, 72 h
[6] = ratio between promastigote GI50 and intracellular amastigote GI50, >2 more active against intracellular amastigote, <0.4 more active against promastigotes
[7] = PMA-differentiated infected THP-1, 72 h, host nuclei count

Row | Structure (SMILES) | GI50 ([1]; Homo sapiens, THP-1, 72 h) [µM] | Selectivity [1] | GI50 ([2]; Leishmania donovani) [µM] | GI50 [3, 5] [µM] | Specificity [3, 6] | GI50 ([4]; Leishmania donovani) [µM] | Primary screen against intracellular amastigotes, hit selection [3] | GI50 [1, 7] [µM] | GI50 [2] [µM] | Specificity [3] | GI50 [3] [µM] | GI50 [4] [µM] | Toxicity to the host macrophage (in words) ([1]; dose response, up to 50 µM) | Primary screen against promastigotes, hit selection ([2]; 10 µM, hit = 60% parasite growth inhibition) | Activity against promastigotes (in words) ([2]; dose response, up to 50 µM) | Activity against intracellular amastigotes (in words) ([3]; dose response, up to 50 µM) | Activity against axenic amastigotes (in words) ([4]; dose response, up to 50 µM)
1 | COC(=O)C1=C(C)NC(C)=C(C(=O)OCC(C)C)C1c1ccccc1[N+](=O)[O-] (centres unmarked) [Nisoldipine] | > 16.5 | 1.67 | 9.85 | 32.2 | 0.30 | 13.9 |  |  |  |  |  |  |  |  |  |  | 
2 | C=C1C(=O)O[C@H]2[C@H]1CC/C(C)=C/CC[C@@]1(C)O[C@@H]21 [Parthenolide] | > 16.5 | 1.06 | 15.5 | > 50 | 0.31 | 4.35 |  |  |  |  |  |  |  |  |  |  | 
3 | N=C(N)c1ccc(OCCCCCOc2ccc(C(=N)N)cc2)cc1 [Pentamidine Isethionate] | > 50 | 29.49 | 1.69 | 9.55 | 0.17 | 1.64 | active |  |  |  |  |  |  |  |  |  | 
4 | COc1cc2nc(N3CCN(C(=O)c4ccco4)CC3)nc(N)c2cc1OC.Cl [Prazocin Hydrochloride] |  | 3.46 |  |  |  |  |  | 23.3 | 16.7 | 2.48 | 6.73 | > 50 |  |  |  |  | 
5 | CN1CCc2cccc3c2[C@H]1Cc1ccc(O)c(O)c1-3 [R(-)-Apomorphine] |  | 6.1 |  |  |  |  |  | > 16.5 | 38.1 | 14.12 | 2.7 | 5.2 |  |  |  |  | 
6 | CC[C@@H](C(=O)[C@@H](C)[C@@H](O)[C@H](C)[C@@H]1O[C@@H]([C@@H](CC)C(=O)O)CC[C@@H]1C)[C@H]1O[C@]2(C=C[C@@H](O)[C@]3(CC[C@@](C)([C@H]4CC[C@](O)(CC)[C@H](C)O4)O3)O2)[C@H](C)C[C@@H]1C [Salinomycin] | 16.1 | 17.30 | 2.71 | 0.92 |  | 0.06 |  |  |  | 2.92 |  |  |  |  |  |  | 
7 | CC/C(=C(\c1ccccc1)c1ccc(OCCN(C)C)cc1)c1ccccc1 [Tamoxifen Citrate] | > 16.5 | 1.61 | 10.2 | 20.8 | 0.49 | > 50 | active |  |  |  |  |  |  |  |  |  | 
8 | CCOc1ccccc1OCCN[C@H](C)Cc1ccc(OC)c(S(N)(=O)=O)c1 [Tamsulosin] | 28 | 4.43 | 20 | 6.3 | 3.17 | > 50 |  |  |  |  |  |  |  |  |  |  | 
9 | CN(C)C(=S)SSC(=S)N(C)C [Thiram] | 1.58 | 0.34 | 4.62 | 10.4 | 0.44 | 5.42 |  |  |  |  |  |  |  |  |  |  | 
10 | Cc1ccc2c(Cl)cc(Cl)c(O)c2n1 [chlorquinaldol] | 39.3 | 7.14 | 6.3 | 5.5 | 1.14 | 1.72 |  |  |  |  |  |  |  |  |  |  | 
11 | C=CCN1CC[C@]23c4c5ccc(O)c4O[C@H]2C(=O)CC[C@@]3(O)[C@H]1C5 [naloxone] |  |  |  |  |  |  | not selected as a hit |  |  |  |  |  | not toxic | not selected as a hit | inactive | inactive; also recorded: did not show any activity | inactive
